According to patent publication US12643871B2, “Aryl formamide compound containing chiral sulfur oxide or salt thereof, preparation method, herbicidal composition and use thereof” (Qingdao Kingagroot Chemical Compound Co., Ltd., priority 2019, dated 2026):

How the values were obtained:
Assay type in all cases: in vivo
Corn-Zhengdan 958 = assay: Comparison experiment (post-emergence, Table 7), crop safety on corn; details: Corn-Zhengdan 958 (3.5 leaf)
Excerpt: (§1) If there is no clear marker, the post-seedling test conditions are the same as above, and the experimental results are shown in Tables 4-7.

Green Setaria viridis = assay: Comparison experiment (post-emergence) against racemate / S configuration; details: for Results of comparison experiment (16DAA), weed control: Setaria viridis (4 leaf)
Leptochloa chinensis = assay: as above; details: Leptochloa chinensis (4.5 leaf), 16DAA
Abutilon theophrasti = assay: as above; details: Abutilon theophrasti (3.5 leaf), 16DAA
Digitaria sanguinalis [1] = assay: as above; details: Digitaria sanguinalis (3.5 leaf), 16DAA
Digitaria sanguinalis [2] = assay: as above; details: Digitaria sanguinalis, post-emergence, Table 6, post-seedling test conditions
Excerpt: (§2) The above growth control rates are fresh weight control rates.
(§3) Experiment on weeding effect in post-emergence stage: monocotyledonous and dicotyledonous weed seeds (Descurainia sophia, Capsella bursa-pastoris, Galium aparine, Stellaria media, Lithospermum arvense, Rorippa indica, Alopecurus aequalis, Beckmannia syzigachne, Sclerochloa dura, Phleum paniculatum, Bromus japonicus, Aegilops tauschii, Phalaris arundinacea, Amaranthus retroflexus, Chenopodiaceae, Commelina communis, Sonchus arvensis, convolvulus arvensis, Cirsium setosum, Solanum nigrum, Acalypha australis, Digitaria sanguinalis, Echinochloa crusgalli, Setaria viridis, Setaria glauca, Leptochloa chinensis, Monochoria vaginalis, Sagittaria trifolia, Scirpus juncoides, Cyperus rotundus, Cyperus iria, Cyperus difformis, Fimbristylis, Portulaca oleracea, Xanthium sibiricum, Pharbitis nil) and major crop seeds (wheat, corn, rice, soybean, cotton, oilseed rape, millet, sorghum, potato, sesame, ricinus) were placed in plastic pots filled with soil, then covered with 0.5-2 cm of soil, allowed to grow in a good greenhouse environment. After 2 weeks of sowing, the test plants were treated in the 2 leaf stage. The tested compounds of the present invention were respectively dissolved in acetone, then added with Tween 80 and 1.5 liter/ha of emulsifiable concentrate of methyl oleate as synergist, diluted with a certain amount of water to obtain a solution with a certain concentration, and sprayed with a spray tower onto the plants. After the application, the plants were cultured for 15 days in the greenhouse, and then the experimental results of the weeding were counted. The doses of the used compounds were 500, 250, 125, 60, 30, 15 g/ha, and the averages were obtained by repeating for three times.
as §1

Alopecurus japonicas = assay: as above; details: Table 6, post-seedling test conditions
Excerpt: as §2, §3, §1

Malachium aquaticum = assay: Comparison experiment (post-emergence, Table 7); details: Malachium aquaticum (2 branches)
Excerpt: as §1

Amaranthus retroflexus = assay: Comparison experiment (post-emergence, Table 7); details: Amaranthus retroflexus (6 leaf)
Excerpt: as §1

Echinochloa crusgali = assay: Comparison experiment (post-emergence, Table 7); details: Echinochloa crusgali (3 leaf)
Excerpt: as §1

Capsella bursa-pastoris = assay: Comparison experiment (post-emergence, Table 7); details: Capsella bursa-pastoris (10-11 leaf)
Excerpt: as §1

Sinapis arvensis = assay: Comparison experiment (post-emergence, Table 7); details: Sinapis arvensis (3.5 leaf)
Excerpt: as §1

Descurainia sophia = assay: Comparison experiment (post-emergence, Table 7); details: Descurainia sophia (12 leaf)
Excerpt: as §1

Veronica didyma = assay: Comparison experiment (post-emergence, Table 7); details: Veronica didyma (2 branches)
Excerpt: as §1

Galium aparine = assay: Comparison experiment (post-emergence, Table 7); details: Galium aparine (5 branches)
Excerpt: as §1

CC[S@@+]([O-])c1c(C(F)(F)F)ccc(C(=O)Nc2nnc(C)o2)c1SC [Compound 548]
Results of comparison experiment (16DAA), crop damage (Corn-Zhengdan 958; 3 g/ha): 0% | Results of comparison experiment (16DAA), crop damage (Corn-Zhengdan 958; 6 g/ha): 0% | Results of comparison experiment (16DAA), crop damage (Corn-Zhengdan 958; 12 g/ha): 0% | Results of comparison experiment (16DAA), crop damage (Corn-Zhengdan 958; 24 g/ha): 0% | Results of comparison experiment (16DAA), crop damage (Corn-Zhengdan 958; 48 g/ha): 0% | Results of comparison experiment, Green Setaria viridis (30 g/ha) (Green Setaria viridis; 30 g/ha, Table 6, post-seedling test conditions): 100% | Results of comparison experiment (16DAA), weed control (Green Setaria viridis; 3 g/ha): 20% | Results of comparison experiment (16DAA), weed control (Green Setaria viridis; 6 g/ha): 40% | Results of comparison experiment (16DAA), weed control (Green Setaria viridis; 12 g/ha): 80% | Results of comparison experiment (16DAA), weed control (Green Setaria viridis; 24 g/ha): 100% | Results of comparison experiment (16DAA), weed control (Green Setaria viridis; 48 g/ha): 100% | Results of comparison experiment (16DAA), weed control (Leptochloa chinensis; 3 g/ha): 0% | Results of comparison experiment (16DAA), weed control (Leptochloa chinensis; 6 g/ha): 20% | Results of comparison experiment (16DAA), weed control (Leptochloa chinensis; 12 g/ha): 50% | Results of comparison experiment (16DAA), weed control (Leptochloa chinensis; 24 g/ha): 70% | Results of comparison experiment (16DAA), weed control (Leptochloa chinensis; 48 g/ha): 80% | Results of comparison experiment (16DAA), weed control (Abutilon theophrasti; 3 g/ha): 30% | Results of comparison experiment (16DAA), weed control (Abutilon theophrasti; 6 g/ha): 40% | Results of comparison experiment (16DAA), weed control (Abutilon theophrasti; 12 g/ha): 50% | Results of comparison experiment (16DAA), weed control (Abutilon theophrasti; 24 g/ha): 70% | Results of comparison experiment (16DAA), weed control (Abutilon theophrasti; 48 g/ha): 100% | Results of comparison experiment (16DAA), weed control (Digitaria sanguinalis [1]; 3 g/ha): 40% | Results of comparison experiment (16DAA), weed control (Digitaria sanguinalis [1]; 6 g/ha): 40% | Results of comparison experiment (16DAA), weed control (Digitaria sanguinalis [1]; 12 g/ha): 60% | Results of comparison experiment (16DAA), weed control (Digitaria sanguinalis [1]; 24 g/ha): 80% | Results of comparison experiment (16DAA), weed control (Digitaria sanguinalis [1]; 48 g/ha): 100% | pest or weed control at 30 g/ha (Digitaria sanguinalis [2]): 100% | Results of comparison experiment, Alopecurus japonicas (120 g/ha) (Alopecurus japonicas): 50% | Results of comparison experiment (16DAA), weed control (Malachium aquaticum; 3 g/ha): 30% | Results of comparison experiment (16DAA), weed control (Malachium aquaticum; 6 g/ha): 50% | Results of comparison experiment (16DAA), weed control (Malachium aquaticum; 12 g/ha): 70% | Results of comparison experiment (16DAA), weed control (Malachium aquaticum; 24 g/ha): 100% | Results of comparison experiment (16DAA), weed control (Malachium aquaticum; 48 g/ha): 100% | Results of comparison experiment (16DAA), weed control (Amaranthus retroflexus; 3 g/ha): 30% | Results of comparison experiment (16DAA), weed control (Amaranthus retroflexus; 6 g/ha): 40% | Results of comparison experiment (16DAA), weed control (Amaranthus retroflexus; 12 g/ha): 60% | Results of comparison experiment (16DAA), weed control (Amaranthus retroflexus; 24 g/ha): 80% | Results of comparison experiment (16DAA), weed control (Amaranthus retroflexus; 48 g/ha): 100% | Results of comparison experiment (16DAA), weed control (Echinochloa crusgali; 3 g/ha): 50% | Results of comparison experiment (16DAA), weed control (Echinochloa crusgali; 6 g/ha): 50% | Results of comparison experiment (16DAA), weed control (Echinochloa crusgali; 12 g/ha): 70% | Results of comparison experiment (16DAA), weed control (Echinochloa crusgali; 24 g/ha): 80% | Results of comparison experiment (16DAA), weed control (Echinochloa crusgali; 48 g/ha): 100% | Results of comparison experiment (16DAA), weed control (Capsella bursa-pastoris; 3 g/ha): 10% | Results of comparison experiment (16DAA), weed control (Capsella bursa-pastoris; 6 g/ha): 30% | Results of comparison experiment (16DAA), weed control (Capsella bursa-pastoris; 12 g/ha): 50% | Results of comparison experiment (16DAA), weed control (Capsella bursa-pastoris; 24 g/ha): 70% | Results of comparison experiment (16DAA), weed control (Capsella bursa-pastoris; 48 g/ha): 100% | Results of comparison experiment (16DAA), weed control (Sinapis arvensis; 3 g/ha): 30% | Results of comparison experiment (16DAA), weed control (Sinapis arvensis; 6 g/ha): 40% | Results of comparison experiment (16DAA), weed control (Sinapis arvensis; 12 g/ha): 50% | Results of comparison experiment (16DAA), weed control (Sinapis arvensis; 24 g/ha): 60% | Results of comparison experiment (16DAA), weed control (Sinapis arvensis; 48 g/ha): 80% | Results of comparison experiment (16DAA), weed control (Descurainia sophia; 3 g/ha): 50% | Results of comparison experiment (16DAA), weed control (Descurainia sophia; 6 g/ha): 70% | Results of comparison experiment (16DAA), weed control (Descurainia sophia; 12 g/ha): 80% | Results of comparison experiment (16DAA), weed control (Descurainia sophia; 24 g/ha): 100% | Results of comparison experiment (16DAA), weed control (Descurainia sophia; 48 g/ha): 100% | Results of comparison experiment (16DAA), weed control (Veronica didyma; 3 g/ha): 10% | Results of comparison experiment (16DAA), weed control (Veronica didyma; 6 g/ha): 20% | Results of comparison experiment (16DAA), weed control (Veronica didyma; 12 g/ha): 20% | Results of comparison experiment (16DAA), weed control (Veronica didyma; 24 g/ha): 50% | Results of comparison experiment (16DAA), weed control (Veronica didyma; 48 g/ha): 70% | Results of comparison experiment (16DAA), weed control (Galium aparine; 3 g/ha): 10% | Results of comparison experiment (16DAA), weed control (Galium aparine; 6 g/ha): 10% | Results of comparison experiment (16DAA), weed control (Galium aparine; 12 g/ha): 20% | Results of comparison experiment (16DAA), weed control (Galium aparine; 24 g/ha): 20% | Results of comparison experiment (16DAA), weed control (Galium aparine; 48 g/ha): 30%
